Laboratory results published in article PMC2891523 (The Journal of organic chemistry, 2010).

Target: T1, α-TTP (tocopherol transfer protein) (Homo sapiens, UniProt P49638)
T1 sequence (P49638 1-278): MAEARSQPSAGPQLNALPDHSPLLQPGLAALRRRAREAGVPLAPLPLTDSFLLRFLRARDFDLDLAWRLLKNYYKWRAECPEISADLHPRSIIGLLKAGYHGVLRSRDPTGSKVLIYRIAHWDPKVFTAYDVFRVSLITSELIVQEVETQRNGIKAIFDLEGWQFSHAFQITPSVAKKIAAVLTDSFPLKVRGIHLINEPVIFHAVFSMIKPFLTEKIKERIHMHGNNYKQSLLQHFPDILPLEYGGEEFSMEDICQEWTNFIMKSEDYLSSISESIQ
Assay: fluorescence titration of purified α-TTP, one-site binding fit

Structure (SMILES): CC1=CC(C)=[N+]2C1=Cc1ccc(CCCCCC[C@]3(C)CCc4c(C)c(O)c(C)c(C)c4O3)n1[B-]2(F)F [10a, (R)-5,5-difluoro-7-(6-(6-hydroxy-2,5,7,8-tetramethylchroman-2-yl)hexyl)-1,3-dimethyl-5H-dipyrrolo[1,2-c:1′,2′-f][1,3,2]diazaborinin-4-ium-5-uide]
- Kd: 232 ± 10 nM
